Test results from paper PMC11258486, “Phase 1 dose escalation study of the MDM2 inhibitor milademetan as monotherapy and in combination with azacitidine in patients with myeloid malignancies” (Cancer Medicine, 2024).
Where a name gives a salt, the structure may show the parent alone. Read-outs that look alike come from different tables or passages of the source.

What was measured:
Type in all cases: in vivo, human
[1] = test system: relapsed or refractory AML; assay: Treatment response in participants with AML (2017 European Leukemia Net recommendations)
Procedure: Treatment efficacy was assessed according to the 2017 European Leukemia Net recommendations for AML[23] and the 2006 International Working Group response criteria for MDS.[24] In participants with AML, efficacy outcomes included complete remission (CR), CR with incomplete blood count recovery (CRi), composite complete remission (CRc; CR + CRi), morphologic leukemia‐free state (MLFS), partial remission (PR), overall response rate (CRc + MLFS+PR), stable disease (SD), and treatment failure. Bone marrow biopsies/aspirates were obtained from all participants with AML on Day 1 of Cycles 2 and 3 and once every cycle until response and on Day 1 of Cycles 6, 9, and 12 in responding participants.

[2] = Milademetan plasma pharmacokinetics; set-up: AUC0‐24h versus dose, power model estimated slope: unit not given beside the values; conditions: for half-life / Tmax: human, plasma; for half-life: read-out: geometric mean t1/2
Excerpt: For PK analysis, blood samples were collected at frequent intervals during Cycle 1 Days 1 and 15 in Part 1 (monotherapy), and on Day 5 or 8 (according to dosing schedule) and Day 14 in Part 1A, with sparse sampling on other days.

[3] = test system: Macrophage inhibitory cytokine‐1 (MIC‐1); assay: Serum MIC‐1 pharmacodynamics; conditions: monotherapy, all cohorts
Excerpt: Macrophage inhibitory cytokine‐1 (MIC‐1) is a target of p53 transcriptional activation,[25] and, therefore, change in serum MIC‐1 levels was included as a PD endpoint, measured at multiple time points.

[4] = 160 mg QD for 15 days in Cycle 1
[5] = monotherapy, all studied doses, Cycle 1 Day 1

Structure (SMILES): CC1(C)CCC2(CC1)N[C@@H](C(=O)N[C@@H]1CC[C@@H](C(N)=O)OC1)[C@H](c1ccnc(Cl)c1F)[C@]21C(=O)Nc2cc(Cl)ccc21 [Milademetan monotherapy, milademetan tosylate hydrate]
- AML: CR ([1]; Full Analysis Set): 2 (4%) n (%)
- AML: CRi ([1]; Full Analysis Set): 1 (2%) n (%)
- Participants who achieved CR with incomplete blood count recovery (CRi) ([1]; as given in the abstract): 2.1%
- Participants who achieved complete remission (CR) ([1]; as given in the abstract): 4.2%
- Participants with remission ([1]; as summed in the discussion): 4 n (%)
- accumulation ratio (AR) based on AUC0‐24h [2, 4]: 1.29
- accumulation ratio (AR) based on C max [2, 4]: 1.21
- Increase of C max, AUC0‐24h and AUClast with dose ([2]; both monotherapy and combination arms): dose‐proportional
- half-life ([2]; monotherapy, Cycle 1 Day 15): 7.2 to 25.2 h
- Tmax ([2]; Cohorts 1 through 3 (60, 90, 120 mg QD 21/28)): ~3 h
- Tmax [2, 5]: 3 to 4.6 h
- half-life [2, 5]: 12.9 to 24.6 h
- C max versus dose, power model estimated slope ([2]; monotherapy, Cycle 1 Day 1, 90% CI 0.44–1.08): 0.76
- AUC0‐24h versus dose, power model estimated slope ([2]; monotherapy, Cycle 1 Day 1, 90% CI 0.49–1.15): 0.82
- Time at which steady state is reached ([2]; repeated daily doses): ≤ 8 days
- serum MIC‐1, mean (SD) fold change from baseline ([3]; Cycle 1 Day 8 (N = 53)): 6.4 (5.8) fold change
- serum MIC‐1, mean (SD) fold change from baseline ([3]; Cycle 1 Day 15 (N = 49)): 5.1 (4.2) fold change
- serum MIC‐1, mean (SD) fold change from baseline ([3]; Cycle 1 Days 21 through 22): 4.1 (3.3) fold change
